Test results taken from PMC11277056, “Effects of SRI-32743, a Novel Quinazoline Structure-Based Compound, on HIV-1 Tat and Cocaine Interaction with Norepinephrine Transporter” (International Journal of Molecular Sciences, 2024).

Assays:
Type in all cases: cell-based
[1] = biological target: T1, norepinephrine transporter (hNET) (Homo sapiens, UniProt P23975); assay: [3H]MPP+ preloading and efflux in CHO cells expressing WT hNET
T1 construct: gene SLC6A2; WT hNET

[2] = biological target: T1, norepinephrine transporter (hNET); assay: [3H]Nisoxetine competition binding in intact CHO-K1 cells; also [3H]DA uptake inhibition (IC50 […]) and slowed [3H]Nisoxetine dissociation
[3] = biological target: T2, dopamine transporter (hDAT) (Homo sapiens, UniProt Q01959); assay: [3H]DA uptake inhibition in CHO-K1 cells expressing WT hDAT
T2 construct: gene SLC6A3; WT hDAT
T2 sequence (Q01959 whole entry): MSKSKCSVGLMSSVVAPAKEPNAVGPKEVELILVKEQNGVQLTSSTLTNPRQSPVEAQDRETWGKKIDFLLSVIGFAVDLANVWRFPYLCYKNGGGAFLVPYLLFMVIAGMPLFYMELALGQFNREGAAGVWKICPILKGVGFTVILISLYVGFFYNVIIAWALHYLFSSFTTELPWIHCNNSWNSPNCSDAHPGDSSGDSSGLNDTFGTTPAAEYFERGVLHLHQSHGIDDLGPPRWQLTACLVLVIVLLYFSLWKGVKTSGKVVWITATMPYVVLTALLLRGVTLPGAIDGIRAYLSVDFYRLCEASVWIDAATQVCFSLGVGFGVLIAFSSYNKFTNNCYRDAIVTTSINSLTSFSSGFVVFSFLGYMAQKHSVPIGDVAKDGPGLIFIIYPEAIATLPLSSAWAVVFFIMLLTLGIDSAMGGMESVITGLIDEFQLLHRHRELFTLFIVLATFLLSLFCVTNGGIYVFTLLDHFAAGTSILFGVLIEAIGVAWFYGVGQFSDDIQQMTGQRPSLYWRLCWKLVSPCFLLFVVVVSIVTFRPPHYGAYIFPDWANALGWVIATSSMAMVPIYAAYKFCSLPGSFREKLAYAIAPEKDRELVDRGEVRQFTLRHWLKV

T1 sequence (P23975 whole entry): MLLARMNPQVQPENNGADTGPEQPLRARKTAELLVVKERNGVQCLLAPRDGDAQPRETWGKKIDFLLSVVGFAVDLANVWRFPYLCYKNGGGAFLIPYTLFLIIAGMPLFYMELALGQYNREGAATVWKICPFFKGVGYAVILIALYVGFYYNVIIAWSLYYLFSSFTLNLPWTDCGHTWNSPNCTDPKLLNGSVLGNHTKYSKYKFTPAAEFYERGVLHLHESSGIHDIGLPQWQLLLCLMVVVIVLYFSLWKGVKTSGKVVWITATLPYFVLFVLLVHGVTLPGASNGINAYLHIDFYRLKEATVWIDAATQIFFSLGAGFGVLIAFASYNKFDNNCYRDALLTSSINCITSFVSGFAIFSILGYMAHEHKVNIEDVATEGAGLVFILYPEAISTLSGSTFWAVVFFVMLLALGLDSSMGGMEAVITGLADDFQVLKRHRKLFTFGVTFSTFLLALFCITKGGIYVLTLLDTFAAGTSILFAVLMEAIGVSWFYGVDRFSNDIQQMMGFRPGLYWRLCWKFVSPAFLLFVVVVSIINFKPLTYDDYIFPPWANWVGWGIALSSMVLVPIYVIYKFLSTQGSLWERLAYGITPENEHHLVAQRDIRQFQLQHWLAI

Row | Molecule | [3H]MPP+ preloading and efflux in CHO cells expressing WT hNET [1] | IC50 [2] [µM] | IC50 [3] [µM]
1 | C[n+]1ccc(-c2ccccc2)cc1 [MPP+, N-methyl-4-phenylpyridinium] | decreased both basal [^3H]DA and [^3H]MPP^+ efflux via WT hNET compared with the control | – | –
2 | SRI-32743 | – | 26.4 ± 5.17 | 8.16 ± 1.16
